Series [1] deals with Mast/stem cell growth factor receptor Kit (Homo sapiens, UniProt P10721). The experiment in a line: Inhibition of wild type KIT (unknown origin) using biotinylated poly-Glu-Tyr as substrate preincubated for 30 mins followed by substrate addition in presence of ATP by TR-FRET assay.
Series [2] concerns GISTT1. The experiment in a line: Cytotoxicity against human GISTT1 cells assessed as cell growth inhibition after 72 hrs by CellTiterGlo assay. In kind it is functional. The following applies: GISTT1, 72 h. For orientation: Cellular ATP, detected with luciferase, serves as a proxy for viable cell number.
The nature of series [3]: Cytotoxicity against human GIST48B cells assessed as cell growth inhibition after 72 hrs by CellTiterGlo assay. In kind it is cell-based. The settings on record: for GI50 at 72 h: GIST48B cells; for GI50: gist48b, 72 h.
Series [4] concerns the target T1, Mast/stem cell growth factor receptor Kit (Homo sapiens, UniProt P10721, V559D/V654A).
In series [5] the target is Mast/stem cell growth factor receptor Kit (Homo sapiens, UniProt P10721, T670I/V559D).
Mast/stem cell growth factor receptor Kit (Homo sapiens, UniProt P10721, T670I/V559D), sequence (P10721 26-976 V559D/T670I limits assumed): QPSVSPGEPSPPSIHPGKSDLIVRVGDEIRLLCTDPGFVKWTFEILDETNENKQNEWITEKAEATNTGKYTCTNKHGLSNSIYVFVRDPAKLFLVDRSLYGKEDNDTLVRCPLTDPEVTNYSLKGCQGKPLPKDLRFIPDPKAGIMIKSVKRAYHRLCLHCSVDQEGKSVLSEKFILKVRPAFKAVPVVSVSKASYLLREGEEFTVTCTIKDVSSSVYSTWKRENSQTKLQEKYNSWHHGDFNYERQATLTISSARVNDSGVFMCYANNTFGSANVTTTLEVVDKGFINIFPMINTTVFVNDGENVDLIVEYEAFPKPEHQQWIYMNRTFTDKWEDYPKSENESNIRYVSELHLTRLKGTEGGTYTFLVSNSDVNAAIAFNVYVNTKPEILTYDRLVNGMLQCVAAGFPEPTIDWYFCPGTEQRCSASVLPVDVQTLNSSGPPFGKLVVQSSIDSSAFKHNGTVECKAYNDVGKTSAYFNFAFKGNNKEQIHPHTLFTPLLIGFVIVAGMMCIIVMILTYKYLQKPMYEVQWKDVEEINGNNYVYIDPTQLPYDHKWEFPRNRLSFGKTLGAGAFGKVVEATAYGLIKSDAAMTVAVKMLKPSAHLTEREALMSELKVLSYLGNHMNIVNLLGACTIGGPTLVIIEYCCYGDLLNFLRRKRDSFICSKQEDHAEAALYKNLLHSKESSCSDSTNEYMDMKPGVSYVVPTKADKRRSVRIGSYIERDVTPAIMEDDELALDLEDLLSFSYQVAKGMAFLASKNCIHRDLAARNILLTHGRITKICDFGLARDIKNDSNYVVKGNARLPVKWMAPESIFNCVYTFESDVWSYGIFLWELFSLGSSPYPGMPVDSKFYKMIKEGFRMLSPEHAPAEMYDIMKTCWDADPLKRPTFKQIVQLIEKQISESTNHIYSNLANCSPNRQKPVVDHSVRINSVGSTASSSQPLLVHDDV
The test system of series [6] is GISTT1. In words: Cytotoxicity against human GISTT1 cells harboring KIT T670I mutant assessed as cell growth inhibition after 72 hrs by CellTiterGlo assay. It counts as functional. The following applies: GISTT1, 72 h.
For series [7], the system named is GISTT1. The experiment in a line: Cytotoxicity against human GISTT1 cells harboring KIT D816E mutant assessed as cell growth inhibition after 72 hrs by CellTiterGlo assay. In kind it is functional. The following applies: GISTT1, 72 h.
The subject of series [8] is Mast/stem cell growth factor receptor Kit (Homo sapiens), P10721 [V654A]. The following applies: GIST430.
Series [9] deals with Mast/stem cell growth factor receptor Kit (Homo sapiens, UniProt P10721, D816H). In words: Inhibition of KIT D816H mutant (unknown origin) using biotinylated poly-Glu-Tyr as substrate preincubated for 30 mins followed by substrate addition in presence of ATP by TR-FRET assay. For orientation: Time-resolved FRET reads energy transfer from a long-lived donor to a nearby acceptor.
Mast/stem cell growth factor receptor Kit (Homo sapiens, UniProt P10721, D816H), sequence (P10721 26-976 D816H limits assumed): as the sequence (P10721 26-976 V559D/T670I limits assumed) above, with D534V, I645T, D791H counted along it

Series [10] deals with T1, Mast/stem cell growth factor receptor Kit. This is another data set of the same source.
Series [11] addresses Mast/stem cell growth factor receptor Kit (Homo sapiens, UniProt P10721, V559D/T670I).
The subject of series [12] is GISTT1. The settings on record: Homo sapiens.

The source made the active and inactive calls. The rule behind the calls is not given here.

Mast/stem cell growth factor receptor Kit (Homo sapiens), P10721 [V654A], sequence (P10721 whole entry V654A): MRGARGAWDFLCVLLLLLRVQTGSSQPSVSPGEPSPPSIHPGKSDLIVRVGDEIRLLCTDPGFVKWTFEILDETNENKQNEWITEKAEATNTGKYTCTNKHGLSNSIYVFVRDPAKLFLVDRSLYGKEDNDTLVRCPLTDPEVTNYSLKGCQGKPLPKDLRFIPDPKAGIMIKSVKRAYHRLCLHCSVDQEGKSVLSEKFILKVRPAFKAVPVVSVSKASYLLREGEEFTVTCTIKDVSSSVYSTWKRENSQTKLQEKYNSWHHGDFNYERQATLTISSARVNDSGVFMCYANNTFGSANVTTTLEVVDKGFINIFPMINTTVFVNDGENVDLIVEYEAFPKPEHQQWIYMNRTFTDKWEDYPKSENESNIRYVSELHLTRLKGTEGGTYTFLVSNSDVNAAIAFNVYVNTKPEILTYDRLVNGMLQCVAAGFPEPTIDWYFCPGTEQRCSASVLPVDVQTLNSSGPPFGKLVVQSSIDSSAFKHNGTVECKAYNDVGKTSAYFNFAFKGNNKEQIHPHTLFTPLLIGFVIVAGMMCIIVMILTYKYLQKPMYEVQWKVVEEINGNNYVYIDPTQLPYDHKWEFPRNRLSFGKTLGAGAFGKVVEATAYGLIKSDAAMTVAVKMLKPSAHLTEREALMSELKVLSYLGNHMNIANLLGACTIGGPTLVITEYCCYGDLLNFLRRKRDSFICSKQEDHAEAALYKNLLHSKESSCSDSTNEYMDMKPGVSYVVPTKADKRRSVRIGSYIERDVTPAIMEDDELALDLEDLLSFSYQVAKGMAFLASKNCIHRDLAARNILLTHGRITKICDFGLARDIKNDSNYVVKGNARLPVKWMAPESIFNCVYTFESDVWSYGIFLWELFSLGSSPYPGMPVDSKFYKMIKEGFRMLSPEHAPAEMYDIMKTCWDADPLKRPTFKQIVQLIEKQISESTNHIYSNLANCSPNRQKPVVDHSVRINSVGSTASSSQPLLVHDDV
Mast/stem cell growth factor receptor Kit (Homo sapiens, UniProt P10721, V559D/T670I), sequence (P10721 26-976 V559D/T670I limits assumed): as the sequence (P10721 26-976 V559D/T670I limits assumed) above
T1 sequence (P10721 26-976 V559D/V654A limits assumed): as the sequence (P10721 26-976 V559D/T670I limits assumed) above, with V629A, I645T counted along it
Mast/stem cell growth factor receptor Kit (Homo sapiens, UniProt P10721), sequence (P10721 whole entry): as the sequence (P10721 whole entry V654A) above, with A654V counted along it

One may read the IC50 as the midpoint of a concentration-inhibition curve. Broadly, the GI50 is the concentration at which growth is held to half of that of the control. Consider `Cc1ccc(C(=O)Nc2ccc(CN3CCN(C)CC3)c(C(F)(F)F)c2)cc1C#Cc1ccccn1`, for which the IC50 in series [1] was 3.5 nM; in series [4], “Not Active”; in [5] it was 116 nM; in series [9] it was “Not Active”. The GI50 with GISTT1 [2] stood at 55 nM; in the series with GISTT1 [6], 97 nM; in the series on GISTT1 [7], 1670 nM; in [8], 697 nM. In series [3], the GI50 at 72 h came out at 3630 nM.
For the compound `Cc1ccc(C(=O)Nc2ccc(CN3CCN(C)CC3)c(C(F)(F)F)c2)cc1C#Cc1cccnc1`, the IC50 worked out at 2.1 nM in series [1], 1100 nM in [10], 24 nM in series [5] and 138 nM in series [9] (read-out: IC50). The GI50 with GISTT1 [2] was found to be 51 nM; in the series on GISTT1 [6], 76 nM; with GISTT1 [7] it was 332 nM; in series [8], 333 nM. In addition, the GI50 at 72 h in series [3] was 2700 nM.
Turning to `Cc1ccc(C(=O)Nc2ccc(CN3CCN(C)CC3)c(F)c2)cc1C#Cc1cccnc1`, the IC50 in series [1] was 2.3 nM; in series [4], “Not Active”; in series [11], “Not Active”; in series [9], “Not Active”. For the same compound, the GI50 in the series on GISTT1 [2] was determined as 57 nM; in the series on GISTT1 [6] it was 3290 nM; in the series with GISTT1 [7], 5360 nM; in series [8], 1640 nM. For the same compound, the GI50 at 72 h in series [3] came out at 12000 nM.
Consider `Cc1ccc(C(=O)Nc2ccc(CN3CCN(C)CC3)c(C(F)(F)F)c2)cc1I`, for which the half-maximal inhibitory concentration (IC50) in series [1] is 6.8 nM; in series [4] it was “Not Active”; in series [11] it was “Not Active”; in [9], “Not Active”. Further, the GI50 in the series with GISTT1 [2] came to 896 nM; with GISTT1 [6] it was 3340 nM; with GISTT1 [7], 9890 nM; in series [8] it was 3900 nM. In addition, the GI50 at 72 h in series [3] came to 4880 nM.
As for `Cc1ccc(C(=O)Nc2ccc(CN3CCN(C)CC3)c(C(F)(F)F)c2)cc1C#Cc1ccn2cnnc2c1`, the GI50 entry in the series on GISTT1 [12] is “inactive”. Also, the IC50 was 2.5 nM in series [1], “Not Active” in [4], 2150 nM in series [5] and “Not Active” in series [9]. For the same compound, the GI50 worked out at 282 nM in the series on GISTT1 [2], 2970 nM in the series with GISTT1 [6] and 4140 nM in series [8]. Also, the 50% growth inhibitory concentration (GI50) at 72 h in series [3] came to 4150 nM.
Turning to `Cc1ccc(C(=O)Nc2ccc(CN3CCN(C)CC3)cc2)cc1C#Cc1ccccn1`, the GI50 entry (with GISTT1 [12]; in series [8]) was “inactive” each time. For the same compound, the IC50 is 240 nM in series [1], “Not Active” in [4], “Not Active” in series [11] and “Not Active” in series [9]. The GI50 was 7100 nM in the series with GISTT1 [2], “Not Active” in series [3] and 12500 nM in the series on GISTT1 [6].
On to `Cc1ccc(C(=O)Nc2ccc(CN3CCN(C)CC3)c(F)c2)cc1C#Cc1cnc(N)nc1`, for which the IC50 in [1] was 6.5 nM; in [4], “Not Active”; in series [11], “Not Active”; in series [9] (read-out: IC50) it was 1710 nM. Moreover, the GI50 stood at 31 nM in the series on GISTT1 [2], 1360 nM with GISTT1 [6], 904 nM with GISTT1 [7] and 920 nM in [8]. The GI50 at 72 h in [3] is 8280 nM.
For `Cc1ccc(C(=O)Nc2ccc(CN3CCN(C)CC3)c(C(F)(F)F)c2)c(C)c1I`, the GI50 entry (with GISTT1 [12]; in [8]) was “inactive” in each case. The IC50 in series [1] was 556 nM; in series [4], “Not Active”; in [11], “Not Active”; in series [9], “Not Active”. The concentration for 50% growth inhibition (GI50) in the series with GISTT1 [2] is 10000 nM; in [3], “Not Active”; with GISTT1 [6], 15300 nM.
As to `Cc1ccc(C(=O)Nc2ccc(CN3CCN(C)CC3)cc2)cc1C#Cc1cccnc1`, the IC50 in series [1] was 3.3 nM; in series [4], “Not Active”; in series [11], “Not Active”; in series [9] it was “Not Active”. For the same compound, the GI50 in the series on GISTT1 [2] was 150 nM; in series [3], “Not Active”; with GISTT1 [6] it was 6350 nM; with GISTT1 [7], 9610 nM; in [8], 4030 nM.
On to `COc1cccnc1C#Cc1cc(C(=O)Nc2ccc(CN3CCN(C)CC3)c(C(F)(F)F)c2)ccc1C`, for which the IC50 in series [1] is 6.7 nM; in series [4], “Not Active”; in series [5], 159 nM; in [9], “Not Active”. Besides, the GI50 with GISTT1 [2] came out at 82 nM; in the series with GISTT1 [6] it was 165 nM; in the series with GISTT1 [7], 991 nM; in series [8] it was 564 nM. Moreover, in series [3], the GI50 at 72 h was determined as 3790 nM.
`C#Cc1cc(C(=O)Nc2ccc(CN3CCN(C)CC3)c(C(F)(F)F)c2)ccc1C`: the GI50 entry (in the series with GISTT1 [12]; in series [8]) was “inactive” each time. In addition, the IC50 was 231 nM in [1], “Not Active” in [4], “Not Active” in [11] and “Not Active” in series [9]. The GI50 with GISTT1 [2] was 7840 nM; in [3], “Not Active”; in the series on GISTT1 [6], 10100 nM.
On to `COCCNc1ncc(C#Cc2cc(C(=O)Nc3ccc(CN4CCN(C)CC4)c(C(F)(F)F)c3)ccc2C)cn1`, for which the IC50 is 3.3 nM in series [1], 252 nM in series [10], 107 nM in [5] and 2610 nM in series [9] (read-out: IC50). Moreover, the GI50 is 119 nM in the series on GISTT1 [2], 198 nM in the series with GISTT1 [6], 704 nM in the series with GISTT1 [7] and 481 nM in series [8]. For the same compound, the GI50 at 72 h in series [3] came out at 5130 nM.
Turning to `Cc1ccc(C(=O)Nc2ccc(CN3CCN(C)CC3)c(C(F)(F)F)c2)c(F)c1I`, the GI50 entry (in the series with GISTT1 [12]; in [8]) was “inactive” in each case. Besides, the half-maximal inhibitory concentration (IC50) was 184 nM in series [1], “Not Active” in series [4], “Not Active” in series [11] and “Not Active” in [9]. Further, the GI50 came to 5730 nM with GISTT1 [2] and 9510 nM in the series on GISTT1 [6]. In series [3], the GI50 at 72 h turned out to be 3630 nM.
For `Cc1ccc(C(=O)Nc2ccc(CN3CCN(C)CC3)c(C(F)(F)F)c2)cc1C#Cc1ccc(OCc2ccccc2)cn1`, the GI50 result in the series on GISTT1 [12] is “inactive”. For the same compound, the IC50 was 121 nM in series [1], “Not Active” in series [4], “Not Active” in [11] and “Not Active” in series [9]. Further, the GI50 was 121 nM in the series on GISTT1 [2], 4380 nM in the series on GISTT1 [6] and 2000 nM in [8]. For the same compound, the GI50 at 72 h in [3] worked out at 1860 nM.
As for `Cc1ccc(C(=O)Nc2ccc(CN3CCN(C)CC3)c(C(F)(F)F)c2)cc1C#Cc1ccc(N)nc1`, the IC50 in [1] amounted to 2 nM; in series [10], 908 nM; in series [5] it was 28.8 nM; in series [9] (read-out: IC50), 140 nM. For the same compound, the GI50 in the series with GISTT1 [2] was 42 nM; with GISTT1 [6] it was 67 nM; in the series with GISTT1 [7], 221 nM; in [8], 404 nM. The GI50 at 72 h in [3] stood at 2240 nM.
As for `CCc1c(I)cccc1C(=O)Nc1ccc(CN2CCN(C)CC2)c(C(F)(F)F)c1`, the GI50 entry in the series on GISTT1 [12] was “inactive”. Besides, the IC50 in [1] is 1040 nM; in [4], “Not Active”; in series [11], “Not Active”; in series [9], “Not Active”. Also, the GI50 with GISTT1 [2] turned out to be 11000 nM; in the series with GISTT1 [6], 7610 nM; in series [8], 15900 nM. The GI50 at 72 h in series [3] stood at 9940 nM.
`CCN(CC)CCNC(=O)c1c(C)[nH]c(/C=C2\C(=O)Nc3ccc(F)cc32)c1C` [SUNITINIB]: the GI50 in the series with GISTT1 [2] is 40 nM; in series [3] it was “Not Active”; with GISTT1 [6], 90 nM; with GISTT1 [7], 5880 nM.
On to `Cc1ccc(C(=O)Nc2ccc(CN3CCN(C)CC3)cc2)cc1C#Cc1cnc(N)nc1`, for which the IC50 is 2.6 nM in [1], “Not Active” in series [4], “Not Active” in [11] and “Not Active” in series [9]. The GI50 was determined as 33 nM in the series on GISTT1 [2], 1220 nM in the series with GISTT1 [6], 1270 nM in the series on GISTT1 [7] and 2060 nM in series [8]. The GI50 at 72 h in series [3] is 6880 nM.
With `Cc1ccc(C(=O)Nc2ccc(CN3CCN(C)CC3)c(C(F)(F)F)c2)cc1C#Cc1ccc(N)nn1`, the IC50 in series [1] is 5.8 nM; in series [4], “Not Active”; in series [5], 150 nM; in [9] (read-out: IC50), 2270 nM. The GI50 is 54 nM in the series with GISTT1 [2], 89 nM with GISTT1 [6], 580 nM in the series with GISTT1 [7] and 459 nM in series [8]. Also, in series [3], the GI50 at 72 h was 6250 nM.
As for `Cc1ccc(C(=O)Nc2ccc(CN3CCN(C)CC3)c(C(F)(F)F)c2)cc1C#Cc1ccn2ccnc2c1`, the IC50 in series [1] was 1.6 nM; in series [4], “Not Active”; in series [5], 72 nM; in [9], “Not Active”. The GI50 with GISTT1 [2] was 59 nM; in the series with GISTT1 [6], 184 nM; in the series on GISTT1 [7], 2290 nM; in [8], 723 nM. Moreover, the GI50 at 72 h in [3] was 3040 nM.

Values taken from ChEMBL document CHEMBL4017543, “Inhibitors to Overcome Secondary Mutations in the Stem Cell Factor Receptor KIT” (J Med Chem, 2017).
